Results taken from patent US12077503B2, “Substituted cyclic amides and their use as herbicides” (FMC CORPORATION, priority 2015, dated 2024).

Assays:
Type in all cases: in vivo
[1] = tested on: ivy-leaved morning glory (Ipomoea hederacea); test: Test G Pre-Emergence Protocol; conditions: Ipomoea, pre-emergence, 312 h, evaluated after 13 days
In short: (§1)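 Pre-emergence spray, 15.625/62.5/250 g/ha, vehicle acetone:water 50:50 + 0.5% Tween 20, applied 1 d after sowing. Glasshouse 24/16° C, 14 h light, 65% RH, watered twice daily. Visual damage rating at 13 d, 0–100 scale.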

[2] = tested on: redroot pigweed (Amaranthus retroflexus); test: Test G Pre-Emergence Protocol; conditions: Amaranthus retroflexus, pre-emergence, 312 h, evaluated after 13 days
In short: as §1

[3] = tested on: velvetleaf (Abutilon theophrasti); test: Test G Pre-Emergence Protocol; conditions: Abutilon theophrasti, pre-emergence, 312 h, evaluated after 13 days
In short: as §1

[4] = tested on: barnyardgrass (Echinochloa crus-galli); test: Test G Pre-Emergence Protocol; conditions: Echinochloa crus-galli, pre-emergence, 312 h, evaluated after 13 days
In short: as §1

[5] = tested on: giant foxtail (Setaria faberi); test: Test G Pre-Emergence Protocol; conditions: Setaria faberi, pre-emergence, 312 h, evaluated after 13 days
In short: as §1

corn (Zea mays) [6] = test: Test G Pre-Emergence Protocol; conditions: Zea mays, pre-emergence, 312 h, evaluated after 13 days
In short: as §1

[7] = tested on: ivy-leaved morning glory (Ipomoea hederacea); test: Test G Post-Emergence Protocol; conditions: Ipomoea, post-emergence, 312 h
In short: (§2)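 Foliar application was made 8 days after sowing, using an aqueous spray of the active in acetone/water (50:50) with 0.5% Tween 20, at doses of 15.625, 62.5 or 250 g/ha. Injury was assessed 13 days later, where 100 meant the plant was fully damaged.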

[8] = tested on: redroot pigweed (Amaranthus retroflexus); test: Test G Post-Emergence Protocol; conditions: Amaranthus retroflexus, post-emergence, 312 h
In short: as §2

[9] = tested on: velvetleaf (Abutilon theophrasti); test: Test G Post-Emergence Protocol; conditions: Abutilon theophrasti, post-emergence, 312 h
In short: as §2

[10] = tested on: barnyardgrass (Echinochloa crus-galli); test: Test G Post-Emergence Protocol; conditions: Echinochloa crus-galli, post-emergence, 312 h
In short: as §2

[11] = tested on: giant foxtail (Setaria faberi); test: Test G Post-Emergence Protocol; conditions: Setaria faberi, post-emergence, 312 h
In short: as §2

corn (Zea mays) [12] = test: Test G Post-Emergence Protocol; conditions: Zea mays, post-emergence, 312 h
In short: as §2

## CN1C[C@@H](c2cnc(Cl)c(Cl)c2)[C@H](C(=O)Nc2cccc(F)c2F)C1=O (racemic) [Compound 1487]
[1]; 15.625 g ai/ha, read-out: Morning-glory, Ivy-leaved damage rating (100=total damage to plant; 0=no damage to plant)
  pest or weed control at 15.625 g/ha: 0%
[1]; 62.5 g ai/ha, 100=total damage to plant, 0=no damage to plant, read-out: plant damage rating, Morningglory, Ivy-leaved
  pest or weed control at 62.5 g/ha: 0%
[1]; 250 g ai/ha, read-out: Morningglory, Ivy-leaved damage rating (100=total damage to plant; 0=no damage to plant)
  pest or weed control at 250 g/ha: 20%
[2]; 15.625 g ai/ha, read-out: Pigweed, Redroot damage rating (100=total damage to plant; 0=no damage to plant)
  pest or weed control at 15.625 g/ha: 0%
[2]; 62.5 g ai/ha, 100=total damage to plant, 0=no damage to plant, read-out: plant damage rating, Pigweed, Redroot
  pest or weed control at 62.5 g/ha: 0%
[2]; 250 g ai/ha, read-out: Pigweed, Redroot damage rating (100=total damage to plant; 0=no damage to plant)
  pest or weed control at 250 g/ha: 80%
[3]; 15.625 g ai/ha, read-out: Velvetleaf damage rating (100=total damage to plant; 0=no damage to plant)
  pest or weed control at 15.625 g/ha: 0%
[3]; 62.5 g ai/ha, 100=total damage to plant, 0=no damage to plant, read-out: plant damage rating, Velvetleaf
  pest or weed control at 62.5 g/ha: 0%
[3]; 250 g ai/ha, read-out: Velvetleaf damage rating (100=total damage to plant; 0=no damage to plant)
  pest or weed control at 250 g/ha: 30%
[4]; 15.625 g ai/ha, read-out: Barnyard grass damage rating (100=total damage to plant; 0=no damage to plant)
  pest or weed control at 15.625 g/ha: 30%
[4]; 62.5 g ai/ha, 100=total damage to plant, 0=no damage to plant, read-out: plant damage rating, Barnyardgrass
  pest or weed control at 62.5 g/ha: 90%
[4]; 250 g ai/ha, read-out: Barnyardgrass damage rating (100=total damage to plant; 0=no damage to plant)
  pest or weed control at 250 g/ha: 80%
[5]; 15.625 g ai/ha, read-out: Foxtail, Giant damage rating (100=total damage to plant; 0=no damage to plant)
  pest or weed control at 15.625 g/ha: 80%
[5]; 62.5 g ai/ha, 100=total damage to plant, 0=no damage to plant, read-out: plant damage rating, Foxtail, Giant
  pest or weed control at 62.5 g/ha: 90%
[5]; 250 g ai/ha, read-out: Foxtail, Giant damage rating (100=total damage to plant; 0=no damage to plant)
  pest or weed control at 250 g/ha: 90%
Corn (Zea mays) [6]; 15.625 g ai/ha, read-out: Corn damage rating (100=total damage to plant; 0=no damage to plant)
  plant injury at 15.625 g/ha: 10%
Corn (Zea mays) [6]; 62.5 g ai/ha, 100=total damage to plant, 0=no damage to plant, read-out: plant damage rating, Corn
  plant injury at 62.5 g/ha: 20%
Corn (Zea mays) [6]; 250 g ai/ha, read-out: Corn damage rating (100=total damage to plant; 0=no damage to plant)
  plant injury at 250 g/ha: 70%
[7]; 15.625 g ai/ha, evaluated after 13 days (100=total damage to plant; 0=no damage to plant), read-out: Morningglory, Ivy-leaved damage rating
  pest or weed control at 15.625 g/ha: 0%
[7]; 62.5 g ai/ha, evaluated after 13 days, read-out: Morningglory, Ivy-leaved damage rating (100=total damage to plant; 0=no damage to plant)
  pest or weed control at 62.5 g/ha: 0%
[7]; 250 g ai/ha, evaluated after 13 days, read-out: damage to plant, Morningglory, Ivy-leaved (100=total damage to plant; 0=no damage to plant)
  pest or weed control at 250 g/ha: 20%
[8]; 15.625 g ai/ha, evaluated after 13 days (100=total damage to plant; 0=no damage to plant), read-out: Pigweed, Redroot damage rating
  pest or weed control at 15.625 g/ha: 20%
[8]; 62.5 g ai/ha, evaluated after 13 days, read-out: Pigweed, Redroot damage rating (100=total damage to plant; 0=no damage to plant)
  pest or weed control at 62.5 g/ha: 0%
[8]; 250 g ai/ha, evaluated after 13 days, read-out: damage to plant, Pigweed, Redroot (100=total damage to plant; 0=no damage to plant)
  pest or weed control at 250 g/ha: 30%
[9]; 15.625 g ai/ha, evaluated after 13 days (100=total damage to plant; 0=no damage to plant), read-out: Velvetleaf damage rating
  pest or weed control at 15.625 g/ha: 0%
[9]; 62.5 g ai/ha, evaluated after 13 days, read-out: Velvetleaf damage rating (100=total damage to plant; 0=no damage to plant)
  pest or weed control at 62.5 g/ha: 0%
[9]; 250 g ai/ha, evaluated after 13 days, read-out: damage to plant, Velvetleaf (100=total damage to plant; 0=no damage to plant)
  pest or weed control at 250 g/ha: 20%
[10]; 15.625 g ai/ha, evaluated after 13 days (100=total damage to plant; 0=no damage to plant), read-out: Barnyardgrass damage rating
  pest or weed control at 15.625 g/ha: 50%
[10]; 62.5 g ai/ha, evaluated after 13 days, read-out: Barnyardgrass damage rating (100=total damage to plant; 0=no damage to plant)
  pest or weed control at 62.5 g/ha: 60%
[10]; 250 g ai/ha, evaluated after 13 days, read-out: damage to plant, Barnyardgrass (100=total damage to plant; 0=no damage to plant)
  pest or weed control at 250 g/ha: 70%
[11]; 15.625 g ai/ha, evaluated after 13 days (100=total damage to plant; 0=no damage to plant), read-out: Foxtail, Giant damage rating
  pest or weed control at 15.625 g/ha: 60%
[11]; 62.5 g ai/ha, evaluated after 13 days, read-out: Foxtail, Giant damage rating (100=total damage to plant; 0=no damage to plant)
  pest or weed control at 62.5 g/ha: 70%
[11]; 250 g ai/ha, evaluated after 13 days, read-out: damage to plant, Foxtail, Giant (100=total damage to plant; 0=no damage to plant)
  pest or weed control at 250 g/ha: 70%
Corn (Zea mays) [12]; 15.625 g ai/ha, evaluated after 13 days (100=total damage to plant; 0=no damage to plant), read-out: Corn damage rating
  plant injury at 15.625 g/ha: 20%
Corn (Zea mays) [12]; 62.5 g ai/ha, evaluated after 13 days, read-out: Corn damage rating (100=total damage to plant; 0=no damage to plant)
  plant injury at 62.5 g/ha: 60%
Corn (Zea mays) [12]; 250 g ai/ha, evaluated after 13 days, read-out: damage to plant, Corn (100=total damage to plant; 0=no damage to plant)
  plant injury at 250 g/ha: 70%
